This note sets out measurements from ChEMBL document CHEMBL1201862, “PubChem BioAssay data set” (2004).

Assay [1] addresses T1, Alkaline phosphatase, tissue-nonspecific isozyme (Homo sapiens, UniProt P05186).
T1 sequence (P05186 whole entry): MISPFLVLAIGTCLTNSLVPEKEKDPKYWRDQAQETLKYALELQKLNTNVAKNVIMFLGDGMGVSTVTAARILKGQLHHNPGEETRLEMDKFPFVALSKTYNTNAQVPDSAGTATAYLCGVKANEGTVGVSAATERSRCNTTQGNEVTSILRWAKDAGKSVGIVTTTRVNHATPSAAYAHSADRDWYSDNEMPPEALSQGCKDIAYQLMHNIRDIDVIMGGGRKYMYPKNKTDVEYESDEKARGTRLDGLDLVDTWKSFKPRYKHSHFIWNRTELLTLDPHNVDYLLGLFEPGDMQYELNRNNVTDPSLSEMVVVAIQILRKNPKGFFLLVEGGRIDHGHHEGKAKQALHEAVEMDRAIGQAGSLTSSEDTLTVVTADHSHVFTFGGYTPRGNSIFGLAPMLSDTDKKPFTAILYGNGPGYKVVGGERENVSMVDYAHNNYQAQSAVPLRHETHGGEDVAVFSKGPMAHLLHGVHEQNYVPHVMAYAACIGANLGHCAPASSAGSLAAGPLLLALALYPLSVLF

For a further assay, the target named is Cytochrome P450 2C9 (Homo sapiens, UniProt P11712). Particulars: Potency.
Chain of Cytochrome P450 2C9 (P11712 whole entry): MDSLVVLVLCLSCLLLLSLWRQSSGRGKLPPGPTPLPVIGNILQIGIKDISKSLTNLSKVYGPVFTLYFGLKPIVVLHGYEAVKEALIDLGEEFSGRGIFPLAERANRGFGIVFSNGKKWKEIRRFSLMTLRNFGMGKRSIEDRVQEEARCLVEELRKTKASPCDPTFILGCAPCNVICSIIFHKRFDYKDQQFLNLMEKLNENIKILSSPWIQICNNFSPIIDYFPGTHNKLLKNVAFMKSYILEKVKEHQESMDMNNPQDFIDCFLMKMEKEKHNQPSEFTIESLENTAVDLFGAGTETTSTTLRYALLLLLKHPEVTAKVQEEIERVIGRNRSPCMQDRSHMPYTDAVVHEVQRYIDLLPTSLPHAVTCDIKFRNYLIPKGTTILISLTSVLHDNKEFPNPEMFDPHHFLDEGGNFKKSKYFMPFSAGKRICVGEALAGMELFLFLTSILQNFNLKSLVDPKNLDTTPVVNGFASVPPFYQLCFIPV
The next assay deals with Cytochrome P450 2D6 (Homo sapiens, UniProt P10635).
Chain of Cytochrome P450 2D6 (P10635 whole entry): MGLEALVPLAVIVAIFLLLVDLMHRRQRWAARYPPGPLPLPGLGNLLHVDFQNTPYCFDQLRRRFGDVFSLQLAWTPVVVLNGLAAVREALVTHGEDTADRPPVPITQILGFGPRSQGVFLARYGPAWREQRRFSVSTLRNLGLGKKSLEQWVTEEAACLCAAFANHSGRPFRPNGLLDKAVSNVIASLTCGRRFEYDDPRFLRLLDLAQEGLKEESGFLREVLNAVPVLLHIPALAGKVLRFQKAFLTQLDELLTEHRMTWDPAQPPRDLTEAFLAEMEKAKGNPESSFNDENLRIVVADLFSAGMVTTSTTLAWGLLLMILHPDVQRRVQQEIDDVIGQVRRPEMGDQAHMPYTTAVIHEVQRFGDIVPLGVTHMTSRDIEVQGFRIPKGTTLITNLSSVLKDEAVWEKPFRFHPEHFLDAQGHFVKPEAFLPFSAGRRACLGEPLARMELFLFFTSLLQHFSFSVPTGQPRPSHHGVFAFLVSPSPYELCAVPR
Another assay deals with HeLa. Description: Cytotoxicity counterscreen assay for transcriptional activators of heat shock protein 70 (Hsp70). [Related pubchem assays: 1203, 1252 ]. The format is functional. The following applies: Homo sapiens. (The purpose of a counterscreen is to sort out artefacts and off-target activity.)
Assay [2] is described as follows: Luminescence Cell-Based Dose Response to Identify Activators of 5'UTR Stem-Loop Driven Prion Protein mRNA Translation in H4-C Neuroglioblastoma Cells. [Related pubchem assays: 1829 (Project Summary), 1814 (Primary HTS)]. The format is functional.
Assay [3] can be described thus: Luminescence Cell-Based Dose Response HTS to Identify Activators of Luciferase Translation or Activity in H4 […] Cells. [Related pubchem assays: 1829 (Project Summary), 1814 (Primary HTS)]. The format is functional.
Assay [4] is described as follows: Luminescence Cell-Based Dose Response to Identify Activators of Luciferase Translation or Activity in H4-C Neuroglioblastoma Cells. [Related pubchem assays: 1829 (Project Summary), 1814 (Primary HTS)]. The format is functional.
Assay [5] is described as follows: Luminescence Cell-Based Dose Confirmation to Identify Activators of 5'UTR Stem-Loop Driven Alpha-Synuclein mRNA Translation in H4 Neuroglioblastoma Cells. [Related pubchem assays: 1829 (Project Summary), 1814 (Primary HTS)]. The format is functional.
Assay [6] addresses Polyadenylate-binding protein 1 (Homo sapiens, UniProt P11940). In words: PABP poly(A) RNA binding inhibitors, primary screen, biochemical, fluorescence polarization, uHTS (AID 2014). In general terms: In fluorescence polarisation assays a small probe gives low polarisation when free and higher when bound to something large.
In assay [7] the target is Eukaryotic translation initiation factor 4H (Homo sapiens, UniProt Q15056). Description: human eIF4H binding inhibitors, primary screen, translation initiation inhibitor project, biochemical, uHTS, fluorescence polarization (AID 2012).
Another assay deals with Cytochrome P450 2C19 (Homo sapiens, UniProt P33261). In words: Cytochrome panel assay with activity outcomes. Panel member name: p450-cyp2c19 Compounds with AC50 equal or less than 10 uM are considered active. Particulars: read-out: AC50. The format is functional.
Chain of Cytochrome P450 2C19 (P33261 whole entry): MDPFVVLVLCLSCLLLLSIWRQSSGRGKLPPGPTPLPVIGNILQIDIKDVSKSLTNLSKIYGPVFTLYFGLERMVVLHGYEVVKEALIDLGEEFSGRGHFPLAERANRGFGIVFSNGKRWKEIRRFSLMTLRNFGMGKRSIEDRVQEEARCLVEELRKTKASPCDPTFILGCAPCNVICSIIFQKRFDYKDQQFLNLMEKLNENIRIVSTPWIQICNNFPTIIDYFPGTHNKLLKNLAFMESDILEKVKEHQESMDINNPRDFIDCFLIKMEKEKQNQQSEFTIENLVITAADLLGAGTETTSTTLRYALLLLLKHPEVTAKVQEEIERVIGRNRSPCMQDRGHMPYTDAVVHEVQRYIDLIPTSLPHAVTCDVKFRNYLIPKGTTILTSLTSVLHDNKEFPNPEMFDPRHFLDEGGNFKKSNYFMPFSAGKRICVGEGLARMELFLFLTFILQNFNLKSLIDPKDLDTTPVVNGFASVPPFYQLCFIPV
The target of the next assay is NS3 (Hepatitis C virus, UniProt A3EZJ3). Description: PubChem AID 2173. Also noted: species or system Hepacivirus hominis.
Chain of NS3 (A3EZJ3 whole entry): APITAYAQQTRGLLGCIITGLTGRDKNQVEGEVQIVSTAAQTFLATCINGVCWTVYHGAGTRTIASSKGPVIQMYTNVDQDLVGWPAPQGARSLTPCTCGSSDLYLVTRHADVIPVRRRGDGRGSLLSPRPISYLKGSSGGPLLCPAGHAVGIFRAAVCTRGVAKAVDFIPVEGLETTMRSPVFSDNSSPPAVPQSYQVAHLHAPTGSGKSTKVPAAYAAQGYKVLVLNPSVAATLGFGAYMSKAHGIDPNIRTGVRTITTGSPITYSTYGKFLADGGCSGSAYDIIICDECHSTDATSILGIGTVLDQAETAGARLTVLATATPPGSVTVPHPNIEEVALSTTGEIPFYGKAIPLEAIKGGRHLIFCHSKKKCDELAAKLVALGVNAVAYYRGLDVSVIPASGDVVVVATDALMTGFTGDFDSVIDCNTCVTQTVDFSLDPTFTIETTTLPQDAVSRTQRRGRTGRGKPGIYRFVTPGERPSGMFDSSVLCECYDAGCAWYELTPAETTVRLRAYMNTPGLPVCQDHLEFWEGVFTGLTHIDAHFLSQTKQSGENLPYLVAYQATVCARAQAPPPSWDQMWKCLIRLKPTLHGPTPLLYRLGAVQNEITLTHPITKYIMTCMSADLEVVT
A further assay addresses T2, Aminopeptidase N (Plasmodium falciparum FcB1/Columbia, UniProt O96935).
T2 sequence (O96935 whole entry): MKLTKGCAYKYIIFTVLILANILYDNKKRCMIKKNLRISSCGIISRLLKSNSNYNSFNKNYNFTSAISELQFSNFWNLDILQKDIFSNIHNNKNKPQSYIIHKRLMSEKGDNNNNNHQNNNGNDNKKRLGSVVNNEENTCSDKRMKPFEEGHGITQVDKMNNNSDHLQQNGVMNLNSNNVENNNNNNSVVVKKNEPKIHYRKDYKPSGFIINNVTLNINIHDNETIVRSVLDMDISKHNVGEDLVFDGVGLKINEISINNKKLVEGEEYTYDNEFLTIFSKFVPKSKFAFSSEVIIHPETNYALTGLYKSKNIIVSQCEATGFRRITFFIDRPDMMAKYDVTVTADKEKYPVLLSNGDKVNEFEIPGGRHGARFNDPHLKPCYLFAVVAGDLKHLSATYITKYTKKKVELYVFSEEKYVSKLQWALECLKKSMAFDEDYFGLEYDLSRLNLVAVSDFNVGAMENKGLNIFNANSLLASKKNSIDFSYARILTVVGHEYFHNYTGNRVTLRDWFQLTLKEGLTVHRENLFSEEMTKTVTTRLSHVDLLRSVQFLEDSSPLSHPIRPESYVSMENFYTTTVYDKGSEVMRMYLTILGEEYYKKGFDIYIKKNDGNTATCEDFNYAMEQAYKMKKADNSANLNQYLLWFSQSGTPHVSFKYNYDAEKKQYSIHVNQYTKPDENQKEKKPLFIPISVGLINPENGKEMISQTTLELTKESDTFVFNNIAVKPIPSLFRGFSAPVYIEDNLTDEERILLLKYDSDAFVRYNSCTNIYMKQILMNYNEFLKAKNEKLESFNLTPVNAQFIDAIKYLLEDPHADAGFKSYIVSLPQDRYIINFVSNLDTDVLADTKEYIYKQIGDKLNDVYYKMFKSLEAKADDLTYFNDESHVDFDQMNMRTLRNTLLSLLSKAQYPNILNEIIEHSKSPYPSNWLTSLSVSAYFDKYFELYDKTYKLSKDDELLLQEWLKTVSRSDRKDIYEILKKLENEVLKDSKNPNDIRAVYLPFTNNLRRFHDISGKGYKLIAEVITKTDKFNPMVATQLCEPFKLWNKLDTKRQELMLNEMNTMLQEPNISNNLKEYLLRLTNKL
Description: P. falciparum M1AAP inhibitors, biochemical, fluorogenic H-Leu-NHMec substrate, 1536-well (AID 1445). Also noted: species or system Plasmodium falciparum 3D7, 3D7.

In the next assay the target is T3, Leucine aminopeptidase (Plasmodium falciparum 3D7, UniProt Q8IL11).
T3 sequence (Q8IL11 whole entry): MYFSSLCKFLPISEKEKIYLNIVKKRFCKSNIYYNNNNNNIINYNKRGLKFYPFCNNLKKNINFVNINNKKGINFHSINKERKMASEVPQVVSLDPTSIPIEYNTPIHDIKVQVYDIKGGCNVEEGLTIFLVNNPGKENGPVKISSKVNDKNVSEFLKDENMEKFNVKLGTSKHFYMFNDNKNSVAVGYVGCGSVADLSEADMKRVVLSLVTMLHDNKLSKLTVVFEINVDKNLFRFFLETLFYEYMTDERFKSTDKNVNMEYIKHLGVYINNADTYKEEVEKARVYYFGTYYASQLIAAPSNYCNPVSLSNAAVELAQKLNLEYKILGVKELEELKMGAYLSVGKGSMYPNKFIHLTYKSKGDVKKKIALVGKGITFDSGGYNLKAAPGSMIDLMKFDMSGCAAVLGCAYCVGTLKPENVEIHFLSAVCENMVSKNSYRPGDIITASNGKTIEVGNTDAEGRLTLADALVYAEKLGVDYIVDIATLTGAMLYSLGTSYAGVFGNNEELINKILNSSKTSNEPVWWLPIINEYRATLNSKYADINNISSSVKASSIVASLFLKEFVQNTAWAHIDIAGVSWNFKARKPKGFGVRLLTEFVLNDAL
Description: P. falciparum M17LAP inhibitors, primary screen, biochemical, fluorogenic H-Leu-NHMec substrate, 1536-well (AID 1619). The format is functional.

For assay [8], the target named is FAD-linked sulfhydryl oxidase ALR (Homo sapiens, UniProt P55789). In words: inhibitors of human ALR sulfhydryl oxidase, dose response, biochemical, H2O2 detection, luminescence, cherry-pick (AID 493248).
Chain of FAD-linked sulfhydryl oxidase ALR (P55789 whole entry): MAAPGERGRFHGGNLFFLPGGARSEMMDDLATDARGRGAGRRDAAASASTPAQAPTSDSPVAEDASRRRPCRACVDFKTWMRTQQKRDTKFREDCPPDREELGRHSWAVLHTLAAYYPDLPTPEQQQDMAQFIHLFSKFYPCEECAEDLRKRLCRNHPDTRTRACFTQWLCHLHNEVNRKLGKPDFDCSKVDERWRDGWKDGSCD
Assay [9] is described as follows: enhancers of respiration in Yfh1-depleted yeast, dose response, Friedreich's ataxia, plus single-dose screen (AID 1465).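 Also: yeast depleted of Yfh1p frataxin homolog grown on glycerol needing respiration; WST-1 tetrazolium dye reduction as measure of cellular dehydrogenase metabolic activity.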 The format is functional.
The next assay has as its system H4. In words: Luminescence Cell-Based Dose Response HTS to Identify Activators of 5'UTR Stem-Loop Driven Prion Protein mRNA Translation in H4 Neuroglioblastoma Cells. [Related pubchem assays: 1829 (Project Summary), 1814 (Primary HTS)]. The format is functional. The following applies: Homo sapiens.
For a further assay, the target named is Troponin, cardiac muscle (Homo sapiens, UniProt P19429+P45379+P63316). In words: Fluorescence-based biochemical high throughput dose response assay for activators of the calcium sensitivity of cardiac Regulated Thin Filaments (RTF). [Related pubchem assays (depositor defined):AID493008, AID493018, AID504382, AID504383]. The format is protein-complex assay.

Structures are written as SMILES. The source made the active and inactive calls. A value given as a limit tells only on which side of the number the result lay.
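For CC50 in this document: cells exposed to compound for 16 hours before readout.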

Chain of Polyadenylate-binding protein 1 (P11940 whole entry): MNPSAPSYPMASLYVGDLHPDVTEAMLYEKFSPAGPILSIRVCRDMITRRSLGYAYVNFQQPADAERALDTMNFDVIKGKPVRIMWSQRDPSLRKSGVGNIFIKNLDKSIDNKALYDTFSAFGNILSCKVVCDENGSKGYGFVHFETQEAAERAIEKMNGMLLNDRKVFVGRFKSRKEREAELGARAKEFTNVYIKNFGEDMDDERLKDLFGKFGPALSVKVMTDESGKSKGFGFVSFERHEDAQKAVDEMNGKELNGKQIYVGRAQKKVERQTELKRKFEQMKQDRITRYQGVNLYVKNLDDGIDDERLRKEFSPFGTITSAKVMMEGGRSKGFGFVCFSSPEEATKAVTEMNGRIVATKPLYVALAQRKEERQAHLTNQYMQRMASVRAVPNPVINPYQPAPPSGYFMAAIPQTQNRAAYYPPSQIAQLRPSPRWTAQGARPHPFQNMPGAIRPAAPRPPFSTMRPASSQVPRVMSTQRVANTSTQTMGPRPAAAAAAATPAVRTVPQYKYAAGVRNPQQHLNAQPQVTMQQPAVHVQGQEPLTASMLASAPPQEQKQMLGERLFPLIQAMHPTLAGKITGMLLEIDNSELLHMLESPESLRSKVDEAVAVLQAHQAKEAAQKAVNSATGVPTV

For orientation: EC50 means the concentration needed to bring the measured effect to its halfway point. For `Oc1c(/C=N/Nc2cccc3cccnc23)ccc2ccccc12`, in assay [1], the concentration for a half-maximal effect (EC50) is on record as > 100 µM (not active).

What is called AC50 is the midpoint of the concentration-response curve, whichever way the signal moves. Consider `CC(C)C[C@H]1C(=O)N2CCC[C@@H]2[C@]2(O)O[C@](NC(=O)[C@H]3C=C4c5cccc6[nH]cc(c56)C[C@H]4N(C)C3)(C(C)C)C(=O)N12`, for which the half-maximal activity concentration (AC50) on Cytochrome P450 2C9 is 12.6 µM (inconclusive).

`CN1CCc2cc3c(cc2[C@@H]1[C@@H]1OC(=O)c2c1ccc1c2OCO1)OCO3`: the half-maximal activity concentration (AC50) on Cytochrome P450 2C9 is 39.8 µM (inconclusive); at Cytochrome P450 2D6, 12.6 µM (inconclusive).

What is called CC50 is the concentration giving 50% cytotoxicity. Consider `Cc1c(O)ccc(C(=O)CN2CCN(Cc3ccc4c(c3)OCO4)CC2)c1O`, for which the 50% cytotoxic concentration (CC50) in the assay with HeLa was > 99 µM (not active).

With `O=C(Oc1ccc(F)cc1C(=O)/C=C/c1cccs1)c1cccc([N+](=O)[O-])c1`, the CC50 in the assay on HeLa was > 33 µM (not active).

Take `COc1ccc(C(=O)/N=c2\sc3c(C)ccc(OC)c3n2C)cc1OC`: the EC50 was 0.484 µM (active) in assay [2], < 0.1 µM (inconclusive) in [3], 0.405 µM (active) in [4] and 0.256 µM (active) in [5].

As a reminder, the IC50 is the concentration at which inhibition is half-maximal. As for `CCOc1ccc(NC(=O)C2CCCN2C(=O)Oc2ccccc2)cc1` (stereo unspecified), the IC50 was 1.85 µM (active) in assay [6] and > 100 µM (inactive) in assay [7].

Regarding `CCNC(=S)NNC(=O)c1cc(CC(C)C)nc2ccccc12`, the concentration giving a half-maximal response (EC50) in assay [1] was 63 µM (not active). In addition, the concentration at half-maximal activity (AC50) on Cytochrome P450 2C19 was 0.178 µM (inconclusive).

On to `COc1ccc(S(=O)(=O)NC2=NC(=O)/C(=C/c3ccco3)S2)cc1`, for which the IC50 on NS3 is 6.31 µM (active); at Aminopeptidase N it was 99.7 µM (active); on Leucine aminopeptidase, 124 µM (active). Besides, the AC50 in assay [8] was 14.6 µM (active).

As to `N#C/C(=C\c1ccc(N2CCOCC2)o1)C(=O)NCCc1ccccc1`, in [9], the concentration giving a half-maximal response (EC50) is > 100 µM (active).

Consider `Cc1ccc(-n2c(C)cc(/C=C3\SC(=O)NC3=O)c2C)cc1`, for which the EC50 in assay [2] is 0.512 µM (active); in assay [3], < 0.1 µM (inconclusive); in assay [4], 0.401 µM (active); in [5], 0.344 µM (active); in the assay on H4, 0.749 µM (active).

With `CCCN1C=CC(=CC=C(C#N)C#N)C=C1`, the EC50 on Troponin, cardiac muscle was 7.62 µM (active); in assay [9], > 100 µM (active).
